In the assay the target is T1, human GPR119 (Homo sapiens, UniProt Q8TDV5).
T1 construct: expressed in transfected cells; host or cells: Flp-in T-Rex-293 cells (Invitrogen #R78007), plasmid pcDNA5/FRT/TO, expression induced with tetracycline
T1 sequence (Q8TDV5 1-335): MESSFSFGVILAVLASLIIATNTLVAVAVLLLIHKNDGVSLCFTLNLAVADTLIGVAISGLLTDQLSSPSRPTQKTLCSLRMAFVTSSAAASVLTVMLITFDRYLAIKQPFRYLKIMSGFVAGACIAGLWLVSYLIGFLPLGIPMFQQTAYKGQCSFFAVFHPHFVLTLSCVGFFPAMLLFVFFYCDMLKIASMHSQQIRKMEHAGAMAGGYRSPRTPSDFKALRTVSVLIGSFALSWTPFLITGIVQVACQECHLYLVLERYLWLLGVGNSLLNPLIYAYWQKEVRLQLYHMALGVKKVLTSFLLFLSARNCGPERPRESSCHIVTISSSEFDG
Nature of the assay: Measurement of intracellular cAMP in stable cell line expressing human GPR119 (GPR119 agonist effect). In kind it is cell-based. The following applies: for EC50: increase of intracellular cAMP, Flp-in T-Rex-293 cells expressing human GPR119, 37° C. for 30 minutes; for GPR119 agonist effect (in words): statement in words on Tables 10 to 13.
Excerpt: The GPR119 agonist effect is studied by measuring the effect of an analyte on increase of intracellular amount of cAMP in human GPR119 introduced cells. The testing method is described below.
Human GPR119 gene (NM 178471) is purchased from ATCC (ATCC No. 10807349), and is amplyfied according to PCR to form BamHI site at 5′ side and Apa I site at 3′ side. The primers are […] (sequence No. 1) and […] (sequence No. 2). The PCR conditions are described below.
The double-stranded DNA is thermally denatured using a DNA polymerase (KOD-Plus-Ver. 2; TOYOBO #KOD-211) at 98° C. for 10 seconds in one cycle. The denatured single-stranded DNA is annealed with the primers at 55° C. for 30 seconds. The DNA is subjected to an extension reaction at 68° C. for 1 minute and 15 seconds. The above-mentioned steps are repeated in 35 cycles. The PCR product is inserted into pcDNA5/FRT/TO (Invitrogen #V6520-20) plasmid. Flp-in T-Rex-293 cells (Invitorogen #R78007) are transfected with the obtained plasmid. The method of transfection is conducted in accordance with the protocol of the product.
(§1) The stable cell line expressing human GPR119 prepared in the above-mentioned method is plated on a 96-well plate at the concentration of 2,500 cells/well using Dulbecco's Modified Eagle Medium (DMEM) containing 10% fetal bovine serum (FBS). Twenty-four hours after plating, tetracyclin (Invitrogen #Q10019) is added at the final concentration of 20 ng/mL to induce hGPR119 gene expression. Twenty-four hours after, the medium is removed, and the cells are stimulated with an assay buffer (0.5 mM IBMX PBS (−)) containing the test compound at 37° C. for 30 minutes. The amount of the intracellular cAMP is measured using a commercially available kit (HitHunter™ cAMP XS+Assay: GE Healthcare #90007503) and a reader (FLUOstar Optima: BMG LABTECH). The test compound is dissolved in 100% DMSO, and added at the final concentration of 1%.
Human GPR119 gene (NM 178471) was purchased from ATCC (ATCC No. 10807349), and is amplyfied according to PCR to form BamHI site at 5′ side and Apa I site at 3′ side. The primers were […] (sequence No. 1) and […] (sequence No. 2). The PCR conditions are described below. The double-stranded DNA was thermally denatured using a DNA polymerase (KOD-Plus-Ver. 2; TOYOBO #KOD-211) at 98° C. for 10 seconds in one cycle. The denatured single-stranded DNA was annealed with the primers at 55° C. for 30 seconds. The DNA was subjected to an extension reaction at 68° C. for 1 minute and 15 seconds. The above-mentioned steps were repeated in 35 cycles. The PCR product was inserted into pcDNA5/FRT/TO (Invitrogen #V6520-20) plasmid. Flp-in T-Rex-293 cells (Invitorogen #R78007) were transfected with the obtained plasmid. The method of transfection was conducted in accordance with the protocol of the product.
as §1, with “method was” for “method is”, “#Q10019) was” for “#Q10019) is”, “medium was” for “medium is”, “cells were” for “cells are”, “cAMP was” for “cAMP is”, “compound was” for “compound is”
The examination was performed by the method similar to Example 87 Pharmacological experiment 1-(1), -(2).

These results are taken from patent US20120245344A1 (NIPPON CHEMIPHAR CO., LTD., priority 2009, published 2012).

A word on the EC50: it is the midpoint of the concentration-response curve. A high value points to a less potent agent. The compound `CCc1cnc(N2CCC(c3ccc(Cn4ccc5cc(S(C)(=O)=O)cc(F)c54)nc3)CC2)nc1` [Example 34, 5-Ethyl-2-[4-[2-(7-fluoro-5-methanesulfonylindol-1-ylmethyl)pyridin-5-yl]piperidin-1-yl]pyrimidine] displayed a half-maximal effective concentration (EC50) of 0.0304 µM.

For `CC(C)(C)OC(=O)N1CCC(c2ccc(CN3CCc4cc(-n5cnnn5)cc(F)c43)nc2)CC1` [Example 38, tert-Butyl 4-[2-[7-fluoro-5-(tetrazol-1-yl)indolin-1-ylmethyl]pyridin-5-yl]piperidine-1-carboxylate], the half-maximal effective concentration (EC50) is 0.0054 µM and the “GPR119 agonist effect (in words)” value was “excellent GPR119 agonist effect”.

On to `CC(C)(C)OC(=O)N1CCC(c2ccc(Cn3ccc4cc(-n5cnnn5)cc(F)c43)nc2)CC1` [Example 41, tert-Butyl 4-[2-[7-fluoro-5-(tetrazol-1-yl)indol-1-ylmethyl]pyridin-5-yl]piperidine-1-carboxylate], for which the EC50 was determined as 0.0037 µM and the “GPR119 agonist effect (in words)” value was “excellent GPR119 agonist effect”.

In the case of `CC(C)(C)OC(=O)N1CCC(c2ccc(Cn3ccc4c(F)c(S(C)(=O)=O)cc(F)c43)nc2)CC1` [Example 42, tert-Butyl 4-[2-(4,7-difluoro-5-methanesulfonylindol-1-ylmethyl)pyridin-5-yl]piperidine-1-carboxylate], the midpoint of the response, the EC50, lay at 0.0229 µM.

In the case of `CC1CN(C(=O)OC(C)(C)C)CC=C1c1ccc(Cn2ccc3cc(S(C)(=O)=O)ccc32)nc1` (centres unmarked) [Example 43, tert-Butyl 4-[2-(5-methanesulfonylindol-1-ylmethyl)pyridin-5-yl]-3-methyl-3,6-dihydro-2H-pyridine-1-carboxylate], it took 0.0587 µM to reach a half-maximal effect (EC50).

In turn, `CC1CN(C(=O)OC(C)(C)C)CCC1c1ccc(Cn2ccc3cc(S(C)(=O)=O)ccc32)nc1` (centres unmarked) [Example 44, tert-Butyl 4-[2-(5-methanesulfonylindol-1-ylmethyl)pyridin-5-yl]-3-methylpiperidine-1-carboxylate] yielded an EC50 of 0.0135 µM. Against the preceding compound, the EC50 is about 4.3-fold lower.

Compound `CC(C)(C)OC(=O)N1CC=C(c2ccc(Cn3ccc4cc(S(C)(=O)=O)ccc43)nc2)C(C)(C)C1` [Example 45, tert-Butyl 3,3-dimethyl-4-[2-(5-methanesulfonylindol-1-ylmethyl)pyridin-5-yl]-3,6-dihydro-2H-pyridine-1-carboxylate] yielded an EC50 of 0.186 µM.

For `CC(C)(C)OC(=O)N1CCC(c2ccc(Cn3ccc4cc(S(C)(=O)=O)ccc43)nc2)C(C)(C)C1` (centres unmarked) [Example 46, tert-Butyl 3,3-dimethyl-4-[2-(5-methanesulfonylindol-1-ylmethyl)pyridin-5-yl]piperidine-1-carboxylate], a half-maximal effect (EC50) was put at 0.111 µM.

Turning to `CC(C)(C)OC(=O)N1CCC(c2ccc(Cn3ccc4cc(S(C)(=O)=O)cc(C(F)(F)F)c43)nc2)CC1` [Example 49, tert-Butyl 4-[2-(5-methanesulfonyl-7-trifluoromethylindol-1-ylmethyl)pyridin-5-yl]piperidine-1-carboxylate], the response was half-maximal at 0.297 µM (EC50). This EC50 is about 2.7-fold higher than that of the compound before.

Compound `CC(C)(C)OC(=O)N1CCC(c2ccc(Cn3ccc4cc(S(C)(=O)=O)ccc43)nc2)C1` (centres unmarked) [Example 50, tert-Butyl 3-[2-(5-methanesulfonylindol-1-ylmethyl)pyridin-5-yl]pyrrolidine-1-carboxylate] registered a concentration giving a half-maximal response (EC50) of 0.375 µM.

In turn, `CC(C)(C)OC(=O)N1CCCC(c2ccc(Cn3ccc4cc(S(C)(=O)=O)ccc43)nc2)CC1` (centres unmarked) [Example 51] displayed an EC50 of 0.115 µM. Compared with the last compound, the EC50 is about 3.3-fold lower.

`CC(C)(C)OC(=O)N1CCC(c2ccc(Cn3ccc4cc(S(C)(=O)=O)c(F)c(F)c43)nc2)CC1` [Example 55, tert-Butyl 4-[2-(6,7-difluoro-5-methanesulfonylindol-1-ylmethyl)pyridin-5-yl]piperidine-1-carboxylate]: the EC50 was determined as 0.0107 µM.

As to `CC(C)(C)OC(=O)N1CCC(c2ccc(Cn3ccc4cc(-n5cncn5)ccc43)nc2)CC1` [Example 56, tert-Butyl 4-[2-[5-(1,2,4-triazol-1-yl)indol-1-ylmethyl]pyridin-5-yl]piperidine-1-carboxylate], a half-maximal response (EC50) required 0.0262 µM.

The compound `CC(C)(C)OC(=O)N1CCC(c2ccc(Cn3ccc4c(F)c(S(C)(=O)=O)c(F)cc43)nc2)CC1` [Example 57, tert-Butyl 4-[2-(4,6-difluoro-5-methanesulfonylindol-1-ylmethyl)pyridin-5-yl]piperidine-1-carboxylate] gave an EC50 of 0.0174 µM.

`Cc1cc(C2CCN(C(=O)OC(C)(C)C)CC2)cnc1Cn1ccc2cc(-n3cncn3)ccc21` [Example 58, tert-Butyl 4-[3-methyl-2-[5-(1,2,4-triazol-1-yl)indol-1-ylmethyl]pyridin-5-yl]piperidine-1-carboxylate] had a 50% effective concentration (EC50) of 0.0131 µM. This EC50 and that of the compound before are within 1.5-fold of each other.

The compound `Cc1cc(C2CCN(C(=O)OC(C)C)CC2)cnc1Cn1ccc2cc(-n3cncn3)ccc21` [Example 59, Isopropyl 4-[3-methyl-2-[5-(1,2,4-triazol-1-yl)indol-1-ylmethyl]pyridin-5-yl]piperidine-1-carboxylate] returned an EC50 of 0.104 µM.

As to `CC1CN(C(=O)OC(C)(C)C)CC=C1c1ccc(Cn2ccc3c(F)c(S(C)(=O)=O)c(F)cc32)nc1` (centres unmarked) [Example 62, tert-Butyl 4-[2-(4,6-difluoro-5-methanesulfonylindol-1-ylmethyl)pyridin-5-yl]-3-methyl-3,6-dihydro-2H-pyridine-1-carboxylate], the EC50 was 0.0652 µM.

Consider `CC(C)OC(=O)N1CC=C(c2ccc(Cn3ccc4cc(-n5cnnn5)cc(F)c43)nc2)C(C)C1` (centres unmarked) [Example 67, Isopropyl 4-[2-[7-fluoro-5-(tetrazol-1-yl)indol-1-ylmethyl]pyridin-5-yl]-3-methyl-3,6-dihydro-2H-pyridine-1-carboxylate], for which the midpoint of the response, the EC50, lay at 0.0459 µM. The EC50 values of the last two compounds are within 1.5-fold of each other.

Turning to `C[C@H]1C=C(c2ccc(Cn3ccc4cc(S(C)(=O)=O)ccc43)nc2)C[C@H](C)N1C(=O)OC(C)(C)C` [Example 68, tert-Butyl (2S,6S)-2,6-dimethyl-4-[2-(5-methanesulfonylindol-1-ylmethyl)pyridin-5-yl]-3,6-dihydro-2H-pyridine-1-carboxylate], the EC50 was 0.0968 µM.

`C[C@H]1CC(c2ccc(Cn3ccc4cc(S(C)(=O)=O)ccc43)nc2)C[C@H](C)N1C(=O)OC(C)(C)C` (stereo partly drawn) [Example 69, tert-Butyl (2S,6S)-2,6-dimethyl-4-[2-(5-methanesulfonylindol-1-ylmethyl)pyridin-5-yl]piperidine-1-carboxylate]: a half-maximal effect (EC50) was put at 0.0175 µM.

Regarding `COC(=O)c1ccc2c(ccn2Cc2ncc(C3CCN(C(=O)OC(C)(C)C)CC3)cc2F)c1` [Example 71, tert-Butyl 4-[3-fluoro-2-[5-(methoxycarbonyl)indol-1-ylmethyl)pyridin-5-yl]piperidine-1-carboxylate], the midpoint of the response, the EC50, lay at 0.191 µM.
